Values of other authors, collected in patent US20220000962A1, “PLANT-BASED BIOLOGICALLY ACTIVE SUBSTANCE HAVING A POLYPHARMACOLOGICAL EFFECT” (priority 2015, published 2022).

Tested on: CMV
Conditions: tricin obtained from Sasa albo-marginata

## COc1cc(-c2cc(=O)c3c(O)cc(O)cc3o2)cc(OC)c1O [tricin, 5,7,4-trihydroxy-3′,5′-dimethoxyflavone]
  concentration which inhibits development of CMV infection on the cellular level for 50%: 0.139 µg/mL
read-out: concentration which inhibits development of CMV infection on the cellular level for 50%
  IC50: 420 nM
